Data: patent US20240016773A1, “COMPOSITIONS AND METHODS FOR DIAGNOSIS AND TREATMENT OF CONDITIONS RELATED TO AGING” (EPITRACKER, INC., priority 2018, published 2024)

What was measured:
[1] = test system: HDF3CGF system: dermal fibroblasts (IFNγ, TNFα, IL-1β, EGF, bFGF, PDGF-BB); assay: BioMAP Diversity PLUS, HDF3CGF system; format: cell-based, human; details: HD3CGF (so in the source)
Description: (§1) The Diversity PLUS panel allows test agent characterization in an unbiased way across a broad set of systems modeling various human disease states. These systems are designed to model complex human tissue and disease biology of the vasculature, skin, lung, and inflammatory tissues. Quantitative measurements of 148 biomarker activities across this broad panel, along with comparative analysis of biological activities from known bioactive agents, were used to predict and compare the efficacy and function of each selected compound at four concentrations (740 nm and 2.2, 6.7 and 20 μM).
(§2) BioMAP systems are constructed with one or more primary cell types from healthy human donors, with stimuli (such as cytokines or growth factors) added to capture relevant signaling networks that naturally occur in human tissue or pathological conditions. Vascular biology is modeled in both a Th1 (3C system) and a Th2 (4H system) inflammatory environment, as well as in a Th1 inflammatory state specific to arterial smooth muscle cells (CASM3C system). Additional systems recapitulate aspects of the systemic immune response including monocyte-driven Th1 inflammation (LPS system) or T cell stimulation (SAg system), chronic Th1 inflammation driven by macrophage activation (lMphg system) and the T cell-dependent activation of B cells that occurs in germinal centers (BT system). The BE3C system (Th1) and the BF4T system (Th2) represent airway inflammation of the lung, while the MyoF system models myofibroblast-lung tissue remodeling. Lastly, skin biology is addressed in the KF3CT system modeling Th1 cutaneous inflammation and the HDF3CGF system modeling wound healing.
(§3) Each test agent generates a signature BioMAP profile that is created from the changes in protein biomarker readouts within individual system environments. Biomarker readouts (7-17 per system) are selected for therapeutic and biological relevance, are predictive for disease outcomes or specific drug effects and are validated using agents with known mechanism of action (MoA). Each readout is measured quantitatively by immune-based methods that detect protein (e.g., ELISA) or functional assays that measure proliferation and viability. BioMAP readouts are diverse and include cell surface receptors, cytokines, chemokines, matrix molecules and enzymes. In total, the Diversity PLUS panel contains 148 biomarker readouts that capture biological changes that occur within the physiological context of the particular BioMAP system. Specific BioMAP activities have been correlated to in vivo biology, and multiparameter BioMAP profiles have been used to distinguish compounds based on MoA and target selectivity across diverse physiological systems.
(§4) Activated BioMAP systems were incubated with each compound for 24 to 72 hours. Protein-based biomarkers from activated cell systems were measured and compared with non-treated control systems.

[2] = test system: Primary dermal fibroblasts stimulated with IL-1β, TNFα, IFNγ, EGF, bFGF, and PDGF-BB; assay: Third cell-based system: fibrosis and cell proliferation; design: species or system human
Method: This study examined the impact of synthetic pentadecanoic acid (C15:0) at four concentrations (740 nm and 2.2, 6.7, and 20 μM) on three primary human cell-based activity systems that were exposed to agents that mimicked allergic, thrombotic, and fibrotic disease states. In general, protein-based biomarkers in these systems were measured and compared with controls. Pentadecanoic acid was considered ‘active’ when 2 or more consecutive concentrations changed a given biomarker in the same direction relative to vehicle controls, were outside of the significance envelope of internal controls, and had at least one concentration with an effect size greater than 20% (log 10 ratio >0.1).
The third cell-based system recapitulated fibrosis and cell proliferation. Primary dermal fibroblasts were stimulated with IL-1β, TNFα, IFNγ, EGF, bFGF, and PDGF-BB and incubated with pentadecanoic acid for 24 hours. In addition to controls that were not treated with pentadecanoic acid, a negative, non-stimulated system was also included. Plasminogen activator inhibitor-1 (PAI-1), Collagen-I and fibroblast proliferation (at 72 hours) in this system were measured and compared with controls.

[3] = test system: SAg system: venular endothelial cells, peripheral blood mononuclear cells (TCR ligands); assay: BioMAP Diversity PLUS, SAg system; format: cell-based, human
Description: as §1, §2, §3, §4

[4] = test system: New Zealand white rabbits fed a high fat diet; assay: High fat diet-fed New Zealand white rabbit model, daily pentadecanoic acid in diet; format: in vivo
Method: This study examined the impact of daily oral administration of synthetic pentadecanoic acid (C15:0) on serum globulins, cholesterol, and liver fibrosis in an animal model fed a high fat diet. Sixteen New Zealand white rabbits were fed a high fat diet (HFD) (4% peanut oil and 0.5% cholesterol) for 2 weeks. Study rabbits were then divided into the following two groups of eight: high fat diet controls, and high fat diet animals treated with pentadecanoic acid (35 mg/kg body weight). The test article was a synthetic powder form stable at room temperature and purchased from Sigma-Aldrich (Products W433400 (≥99% pentadecanoic acid). The test article was provided daily in the diet for 11 weeks (77 days) while continuing ad libitum access to the HFD. Total cholesterol, platelets, and globulins were measured at Days 0 and 77.
On Day 77, liver tissues from HFD controls and pentadecanoic acid-treated animals were collected and scored histologically for fibrosis by a board-certified veterinary pathologist. Liver tissues were processed into paraffin-embedded blocks for H&E and picrosirius red staining for fibrosis (collagen deposition). Whole picrosirius red stained liver slides were scanned using Aperio ScanScope AT2 at 20×. Fibrosis stages were defined as follows: 0=none, 1=persinusoidal or periportal, 2=perisinusoidal and portal/periportal, 3=bridging fibrosis, 4=cirrhosis. Data from the treated group were compared to the control group using Wilcoxon rank sum analyses. Significance was defined as a P value less than or equal to 0.05.

[5] = test system: BT system: peripheral blood mononuclear cells, B cells (α-IgM, TCR ligands); assay: BioMAP Diversity PLUS, BT system; format: cell-based, human
Description: as §1, §2, §3, §4

[6] = 24 hours incubation, 6.7 μM and 20 μM bioactive, vs controls

CCCCCCCCCCCCCCC(=O)O [Pentadecanoic acid, pentadecanoic acid]
Significant log10 reduction vs nontreated controls: 72-hour fibroblast proliferation ([1]; 6.7 μM): −0.67 log10 | Significant log10 reduction vs nontreated controls: Collagen I ([1]; 6.7 μM): −0.07 log10 | Significant log10 reduction vs nontreated controls: Plasminogen activation inhibitor 1 (PAI-1) ([1]; 6.7 μM): −0.08 log10 | Significant log10 reduction vs nontreated controls: 72-hour fibroblast proliferation ([1]; 20.0 μM): −1.1 log10 | Significant log10 reduction vs nontreated controls: Collagen I ([1]; 20.0 μM): −0.13 log10 | Significant log10 reduction vs nontreated controls: Collagen III ([1]; 20.0 μM): −0.13 log10 | Significant log10 reduction vs nontreated controls: Interferon gamma-induced protein 10 (IP-10)/CXCL10 ([1]; 20.0 μM): −0.14 log10 | Significant log10 reduction vs nontreated controls: Interferon-inductible T cell alpha chemoattractant (I-TAC)/CXCL11 ([1]; 20.0 μM): −0.17 log10 | Significant log10 reduction vs nontreated controls: Monokine induced by gamma interferon (MIG)/CXCL9 ([1]; 20.0 μM): −0.10 log10 | Significant log10 reduction vs nontreated controls: Plasminogen activation inhibitor 1 (PAI-1) ([1]; 20.0 μM): −0.13 log10 | Significant log10 reduction vs nontreated controls: Vascular cell adhesion molecule 1 (VCAM-1) ([1]; 20.0 μM): −0.28 log10 | Collagen-I (FIG. 4) [2, 6]: decreases | PAI-1 (FIG. 4) [2, 6]: decreases | 72-hour fibroblast proliferation (FIG. 4) ([2]; 72 hours, 6.7 μM and 20 μM bioactive, vs controls): decreases | Cytotoxicity ([2]; all four concentrations (740 nm and 2.2, 6.7, and 20 μM)): non-cytotoxic | Significant log10 reduction vs nontreated controls: Monocyte chemoattractant protein 1 (MCP-1) ([3]; 6.7 μM): −0.18 log10 | Significant log10 reduction vs nontreated controls: Monocyte chemoattractant protein 1 (MCP-1) ([3]; 20.0 μM): −0.15 log10 | Early mortalities ([4]; 35 mg/kg daily in diet, 11 weeks): no early mortalities | Tolerability of test article ([4]; 35 mg/kg daily in diet, 11 weeks, HFD rabbits): tolerated the test article throughout the study | Stage 3 bridging fibrosis in liver (FIG. 1) ([4]; 35 mg/kg daily oral for 11 weeks, histology, picrosirius red): lack of Stage 3 bridging fibrosis | Platelets compared with HFD control group ([4]; Day 77, 35 mg/kg, HFD rabbits): lower | Globulins ([4]; Index at Day 77 (head), 35 mg/kg dose daily in diet 11 weeks, HFD rabbits, P 0.004): 1.3 ± 0.7 G/dl | Cholesterol ([4]; Index at Day 77 (head), 35 mg/kg dose daily in diet 11 weeks, HFD rabbits, plasma, P 0.024): 2516 ± 746 mg/dL | Liver Fibrosis Stage ([4]; Index at Day 77 (head), 35 mg/kg dose, n = 8, stage score 0-4, P 0.016): 2.3 ± 0.5 | Significant log10 reduction vs nontreated controls: Secreted interleukin 17A (IL-17A) ([5]; 2.2 μM): −0.25 log10 | Significant log10 reduction vs nontreated controls: Secreted interleukin 17F (IL-17F) ([5]; 2.2 μM): −0.16 log10 | Significant log10 reduction vs nontreated controls: Secreted immunoglobulin G (IgG) ([5]; 6.7 μM): −0.17 log10 | Significant log10 reduction vs nontreated controls: Secreted immunoglobulin G (IgG) ([5]; 20.0 μM): −0.55 log10 | Significant log10 reduction vs nontreated controls: Secreted interleukin 6 (IL-6) ([5]; 20.0 μM): −0.29 log10 | Significant log10 reduction vs nontreated controls: Secreted interleukin 17A (IL-17A) ([5]; 20.0 μM): −0.29 log10 | Significant log10 reduction vs nontreated controls: Secreted interleukin 17F (IL-17F) ([5]; 20.0 μM): −0.18 log10
